Experimental data as given in ChEMBL document CHEMBL4699558, “Lead optimization of 8-(methylamino)-2-oxo-1,2-dihydroquinolines as bacterial type II topoisomerase inhibitors” (Bioorg Med Chem, 2020).
≈ marks a conversion by molar mass, not a printed value.

Assays:
DNA gyrase = DNA gyrase (Escherichia coli, UniProt P0AES4+P0AES6); test: Inhibition of Escherichia coli DNA gyrase by measuring supercoiling activity incubated for 60 mins by fluorescence based assay; format: protein-complex assay
[1] = Inhibition of Escherichia coli topoisomerase IV by measuring relaxation activity incubated for 30 mins by fluorescence based assay
Escherichia coli [2] = test: Antibacterial activity against Escherichia coli ATCC 25922 by CLSI method; format: functional
Escherichia coli [3] = test: Antibacterial activity against Escherichia coli ATCC 25922 in presence of PAbetaN by CLSI method; format: functional
Staphylococcus aureus [4] = test: Antibacterial activity against Staphylococcus aureus ATCC 29213 by CLSI method; format: functional
Staphylococcus aureus [5] = test: Antibacterial activity against Methicillin-resistant Staphylococcus aureus by CLSI method; format: functional

CNc1cc(F)cc2cc(C(=O)Nc3ccc(C(=O)NCCN4CCOCC4)cc3)c(=O)[nH]c12
IC50 (DNA gyrase): 7.29 nM | IC50 [1]: 1300 nM | MIC (Escherichia coli [2]): 4 µg/mL (≈ 8.56 µM) | MIC (Escherichia coli [3]): 0.06 µg/mL | MIC (Staphylococcus aureus [4]): > 16 µg/mL

CNc1cc(F)cc2c(NCC3CNC3)c(C(=O)Nc3ccc(C(=O)O)cc3)c(=O)[nH]c12.O=CO
IC50 (DNA gyrase): 0.66 nM | MIC (Escherichia coli [2]): > 16 µg/mL | MIC (Staphylococcus aureus [4]): > 16 µg/mL

CNc1cc(F)cc2c(NCCN)c(C(=O)Nc3ccc(C(=O)O)cc3)c(=O)[nH]c12.O=CO
IC50 (DNA gyrase): 0.94 nM | MIC (Escherichia coli [2]): > 16 µg/mL | MIC (Escherichia coli [3]): 4 µg/mL | MIC (Staphylococcus aureus [4]): > 16 µg/mL

CNc1cc(F)cc2c(NCC3(N)CCC3)c(C(=O)Nc3ccc(C(=O)O)cc3)c(=O)[nH]c12.O=CO
IC50 (DNA gyrase): 2.15 nM | MIC (Escherichia coli [2]): > 32 µg/mL | MIC (Escherichia coli [3]): 0.25 µg/mL | MIC (Staphylococcus aureus [4]): > 32 µg/mL

CNc1cc(F)cc2cc(C(=O)Nc3ccc(C(=O)O)cc3CNCCO)c(=O)[nH]c12.Cl
IC50 (DNA gyrase): 129 nM | MIC (Escherichia coli [2]): > 64 µg/mL | MIC (Escherichia coli [3]): 2 µg/mL | MIC (Staphylococcus aureus [4]): > 64 µg/mL

CNc1cc(F)cc2c(O)c(C(=O)Nc3ccc(C(=O)NS(=O)(=O)N(C)C)cc3CN3CCCCC3)c(=O)[nH]c12
IC50 (DNA gyrase): 4.44 nM | MIC (Escherichia coli [2]): 64 µg/mL (≈ 111 µM) | MIC (Escherichia coli [3]): 0.06 µg/mL

CNCCCc1c(C(=O)Nc2ccc(C(=O)O)cc2)c(=O)[nH]c2c(NC)cc(F)cc12.O=C(O)C(F)(F)F
IC50 (DNA gyrase): 131 nM | MIC (Escherichia coli [2]): > 32 µg/mL | MIC (Escherichia coli [3]): > 32 µg/mL

CNc1cc(F)cc2cc(C(=O)Nc3ccc(C(=O)NCCN)cc3)c(=O)[nH]c12.Cl
IC50 (DNA gyrase): 9.4 nM | MIC (Escherichia coli [2]): > 8 µg/mL | MIC (Escherichia coli [3]): > 8 µg/mL | MIC (Staphylococcus aureus [4]): > 8 µg/mL

CNc1cc(F)cc2cc(C(=O)Nc3ccc(CO)cc3CN(C)C3CCCCC3)c(=O)[nH]c12
IC50 (DNA gyrase): 1.92 nM | MIC (Escherichia coli [2]): 16 µg/mL (≈ 34.3 µM) | MIC (Escherichia coli [3]): 0.06 µg/mL | MIC (Staphylococcus aureus [4]): 4 µg/mL (≈ 8.57 µM)

CNc1cc(F)cc2cc(C(=O)Nc3ccc(C(=O)O)cc3CNC3CCCCC3)c(=O)[nH]c12.O=C(O)C(F)(F)F
IC50 (DNA gyrase): 0.26 nM | MIC (Escherichia coli [2]): 32 µg/mL | MIC (Escherichia coli [3]): 0.5 µg/mL | MIC (Staphylococcus aureus [4]): 16 µg/mL

CNc1cc(F)cc2cc(C(=O)Nc3ccc(C(N)=O)cc3CN(C)C3CCCCC3)c(=O)[nH]c12
IC50 (DNA gyrase): 2.48 nM | MIC (Escherichia coli [2]): > 32 µg/mL | MIC (Escherichia coli [3]): ≤ 0.03 µg/mL | MIC (Staphylococcus aureus [4]): > 32 µg/mL

CNCCc1c(C(=O)Nc2ccc(C(=O)O)cc2)c(=O)[nH]c2c(NC)cc(F)cc12.O=C(O)C(F)(F)F
IC50 (DNA gyrase): 109 nM | MIC (Escherichia coli [2]): > 8 µg/mL | MIC (Escherichia coli [3]): > 8 µg/mL | MIC (Staphylococcus aureus [4]): > 8 µg/mL

CNc1cc(F)cc2c(NCCN3CCOCC3)c(C(=O)Nc3ccc(C(=O)O)cc3)c(=O)[nH]c12.O=CO
IC50 (DNA gyrase): 14.6 nM | MIC (Escherichia coli [2]): > 64 µg/mL | MIC (Escherichia coli [3]): 0.12 µg/mL | MIC (Staphylococcus aureus [4]): 32 µg/mL

Cc1onc(-c2ccccc2)c1C(=O)N[C@@H]1C(=O)N2[C@@H]1SC(C)(C)[C@@H]2C(=O)O [OXACILLIN]
MIC50 (Staphylococcus aureus [5]): > 128 µg/mL | MIC90 (Staphylococcus aureus [5]): > 128 µg/mL

CNc1cc(F)cc2cc(C(=O)Nc3ccc(C(=O)N(C)CCN4CCOCC4)cc3)c(=O)[nH]c12
IC50 (DNA gyrase): 6.36 nM | MIC (Escherichia coli [2]): > 16 µg/mL | MIC (Escherichia coli [3]): 0.12 µg/mL | MIC (Staphylococcus aureus [4]): 16 µg/mL (≈ 33.2 µM)

CNc1cc(F)cc2c(NCC3CCNCC3)c(C(=O)Nc3ccc(C(=O)O)cc3)c(=O)[nH]c12.O=CO
IC50 (DNA gyrase): 1.31 nM | MIC (Escherichia coli [2]): > 32 µg/mL | MIC (Escherichia coli [3]): 0.5 µg/mL | MIC (Staphylococcus aureus [4]): > 32 µg/mL

CNc1cc(F)cc2c(N[C@H]3C[C@@H](N)C3)c(C(=O)Nc3ccc(C(=O)O)cc3)c(=O)[nH]c12.O=CO
IC50 (DNA gyrase): 2.66 nM | MIC (Escherichia coli [2]): > 32 µg/mL | MIC (Escherichia coli [3]): 1 µg/mL | MIC (Staphylococcus aureus [4]): > 32 µg/mL

CNc1cc(F)cc2cc(C(=O)Nc3ccc(C(=O)O)cc3CN(CCN)C3CCCCC3)c(=O)[nH]c12.O=C(O)C(F)(F)F
IC50 (DNA gyrase): 3.68 nM | MIC (Escherichia coli [2]): > 64 µg/mL | MIC (Escherichia coli [3]): 16 µg/mL | MIC (Staphylococcus aureus [4]): > 64 µg/mL

CNCCNc1c(C(=O)Nc2ccc(C(=O)O)cc2)c(=O)[nH]c2c(NC)cc(F)cc12.O=CO
IC50 (DNA gyrase): 2.09 nM | MIC (Escherichia coli [2]): > 16 µg/mL | MIC (Escherichia coli [3]): 8 µg/mL | MIC (Staphylococcus aureus [4]): > 16 µg/mL

CNc1cc(F)cc2c(NCCCN)c(C(=O)Nc3ccc(C(=O)O)cc3)c(=O)[nH]c12.O=CO
IC50 (DNA gyrase): 0.52 nM | MIC (Escherichia coli [2]): > 8 µg/mL | MIC (Escherichia coli [3]): 2 µg/mL | MIC (Staphylococcus aureus [4]): > 8 µg/mL

CNc1cc(F)cc2cc(C(=O)Nc3ccc(C(=O)O)c(O)c3)c(=O)[nH]c12
IC50 (DNA gyrase): 2.05 nM | MIC (Escherichia coli [2]): > 32 µg/mL | MIC (Escherichia coli [3]): 1 µg/mL | MIC (Staphylococcus aureus [4]): > 32 µg/mL
